Assay results from patent US20080145499A1, “Method for treating fruit or vegetables with phosphorous ions and corresponding compositions” (priority 2006, published 2008).
“And” between values parts separate entries of the source, which are not always exact repeats. Identical values can stand only once. Like-named read-outs stand apart in the source and are kept apart here.

How the values were obtained:
P. expansum = assay: Natural P. expansum infections in organic Elstar apples; type: in vivo
From the text: 2—In vivo Study of the Activity of Phosphonic Acid (Kphos) on P. expansum Infections in Apples

P. Digitatum [1] = assay: Natural P. digitatum infections in Navel oranges, comparison with three fungicides; type: in vivo; details: Thermotherapy + phosphonic acid 2,000 ppm; SPC 3 days at ambient temperature
From the text: 4—Efficacy of PA on P. digitatum Infections in Oranges. Comparison with a Mixture of Three Fungicides. All Treatments Were Combined with Thermotherapy

P. Digitatum [2] = assay: Navel oranges damaged and inoculated with P. digitatum, PA with Bioxeda and thermotherapy; type: in vivo; details: 18 days, 48° C. 2 min
Method: 3—Efficacy of PA and Thermotherapy on P. digitatum Infections in Oranges
In this experiment, the oranges were damaged then inoculated with P. Digitatum (500,000 sp/mL) and treated 15 hours later; they were stored at 5° C.

P. expansum spores = test system: P. expansum spores
From the text: 1—In vitro Study of the Activity of Phosphonic Acid on P. expansum

oranges = details: PA up to 4,000 ppm, with thermotherapy
Method: (§1) A new experiment which took place under conditions very similar to those in real life was carried out: natural infections, storage in cold conditions, simulation of storage periods (SPC).

P. Digitatum [3] = test system: P. Digitatum
Method: 5—Efficacy of PA on Natural P. digitatum Infections in Oranges Combined with Thermotherapy
as §1

[4] = test system: strain of Penicillium digitatum resistant to imazalil; assay: Valencia oranges inoculated with Penicillium digitatum resistant to imazalil; type: in vivo; details: 52° C., 2 minutes
Method: Valencia oranges inoculated with a strain of Penicillium digitatum resistant to imazalil were treated at 52° C. and were in contact for 2 minutes with: • 300 ppm imazalil; • 3,000 ppm potassium phosphite • the two products mixed in proportions of 300 ppm imazalil and 3,000 ppm potassium phosphite.

Penicillium digitatum = assay: Washington oranges inoculated with Penicillium digitatum, eugenol/potassium phosphite; type: in vivo
Method: Washington oranges inoculated with Penicillium digitatum came into contact with a eugenol/potassium phosphite solution containing 1,100 ppm of eugenol and 1,600 ppm of potassium phosphite for 2 minutes at 38° C. and 48° C. The treated fruit was kept at 7° C. and then examined after 9 and 18 days. The fruit was compared with fruit treated with only eugenol in the same conditions and with inoculated fruits that had not been treated.

[5] = 3,000 ppm potassium phosphite, tests 1-4

N#Cc1c[nH]cc1-c1cccc2c1OC(F)(F)O2 [Fluidoxonil]
% apples with symptoms (P. expansum; 200 ppm, 2001-2002, 90 days): 1.1% | % apples with symptoms (P. expansum; 200 ppm, 2001-2002, 180 days): 4.9% | % apples with symptoms (P. expansum; 200 ppm, 2002-2003, 90 days): 4.0% | % apples with symptoms (P. expansum; 200 ppm, 2002-2003, 180 days): 7.0%

O=[PH](O)O [PA, Phosphonic acid]
Oranges with symptoms 12 D 5 0C = 3 D SPC (1) (P. Digitatum [1]): 0.5 | rate of decay, times lower in the presence of PA (P. Digitatum [2]; Bioxeda + PA versus Bioxeda): 2.3 times | Oranges with symptoms (P. Digitatum [2]; eugenol 1.8 g/L + PA 1,000 ppm (Kphos), stored at 5° C.): 26% | Germinated spores (P. expansum spores; 1,000 ppm (Kphos), 22° C., 24 hours): 27 | Germinated spores (P. expansum spores; 1,000 ppm (Kphos), 22° C., 48 hours): 34 | Germinated spores (P. expansum spores; 1,000 ppm (Kphos), 50° 2 min, 24 hours): 0 | Germinated spores (P. expansum spores; 1,000 ppm (Kphos), 50° 2 min, 48 hours): 21 | Germinated spores (P. expansum spores; 4,000 ppm (Kphos), 22° C., 24 hours): 11 | Germinated spores (P. expansum spores; 4,000 ppm (Kphos), 22° C., 48 hours): 11 | Germinated spores (P. expansum spores; 4,000 ppm (Kphos), 50° 2 min, 24 hours): 0 | Germinated spores (P. expansum spores; 4,000 ppm (Kphos), 50° 2 min, 48 hours): 0 | activity of PA (P. expansum spores; ambient temperature, even at 4,000 ppm): partial | phytotoxicity (oranges): No phytotoxicity | % oranges with symptoms 15 D 5° C. + 5 D SPC (P. Digitatum [3]; 2,000 ppm, no thermotherapy): 6.0% | efficacy (P. Digitatum [3]; 4,000 ppm combined with thermotherapy): 73.5% | % oranges with symptoms 15 D 5° C. + 5 D SPC (P. Digitatum [3]; 4,000 ppm, no thermotherapy): 5.1% | % oranges with symptoms 15 D 5° C. + 5 D SPC (P. Digitatum [3]; Thermotherapy (50° C. 3 min) + 2,000 ppm): 4.0% | % oranges with symptoms 15 D 5° C. + 5 D SPC (P. Digitatum [3]; Thermotherapy (50° C. 3 min) + 4,000 ppm): 2.7% | % apples with symptoms (P. expansum; 1,000 ppm - 50° C. 2 min, 2001-2002, 90 days): 0.0% | % apples with symptoms (P. expansum; 1,000 ppm - 50° C. 2 min, 2001-2002, 180 days): 4.7% | % apples with symptoms (P. expansum; 1,000 ppm - 50° C. 2 min, 2002-2003, 90 days): 0.0% | % apples with symptoms (P. expansum; 1,000 ppm - 50° C. 2 min, 2002-2003, 180 days): 6.3% | % apples with symptoms (P. expansum; 1,000 ppm, 2001-2002, 90 days after treatment, 2° C.): 3.1% | % apples with symptoms (P. expansum; 1,000 ppm, 2001-2002, 180 days after treatment, 2° C.): 13.1% | % apples with symptoms (P. expansum; 1,000 ppm, 2002-2003, 90 days after treatment, 2° C.): 4.9% | % apples with symptoms (P. expansum; 1,000 ppm, 2002-2003, 180 days after treatment, 2° C.): 11.1% | activity in vivo (P. expansum; PA at ambient temperature on P. expansum in apples): ~0

Cc1cc(C)nc(Nc2ccccc2)n1 [Pyrimethanil]
% apples with symptoms (P. expansum; 250 ppm, 2001-2002, 90 days): 4.1% | % apples with symptoms (P. expansum; 250 ppm, 2001-2002, 180 days): 16.2% | % apples with symptoms (P. expansum; 250 ppm, 2002-2003, 90 days): 4.0% | % apples with symptoms (P. expansum; 250 ppm, 2002-2003, 180 days): 19.0% | % apples with symptoms (P. expansum; 500 ppm, 2001-2002, 90 days): 3.2% | % apples with symptoms (P. expansum; 500 ppm, 2001-2002, 180 days): 21.3% | % apples with symptoms (P. expansum; 500 ppm, 2002-2003, 90 days): 0.0% | % apples with symptoms (P. expansum; 500 ppm, 2002-2003, 180 days): 14.0%

potassium phosphite
Average % of decayed fruit ([4]; 3,000 ppm potassium phosphite): 42.5% | % of decayed fruit [4, 5]: 50% and 60% and 30% | Number of fruit decayed [4, 5]: 5 and 6 and 3 | Number of fruit unaffected [4, 5]: 5 and 4 and 7 | percentages of decayed fruit (Penicillium digitatum; potassium phosphite, 38° C., after 9 days): 14% | percentages of decayed fruit (Penicillium digitatum; potassium phosphite, 38° C., after 18 days): 76% | percentages of decayed fruit (Penicillium digitatum; potassium phosphite, 48° C., after 9 days): 3% | percentages of decayed fruit (Penicillium digitatum; potassium phosphite, 48° C., after 18 days): 44%

C=CCc1ccc(O)c(OC)c1 [eugenol, reference compound]
percentages of decayed fruit (Penicillium digitatum; eugenol 1,100 ppm, 2 minutes at 38° C., kept at 7° C., after 9 days): 12% | percentages of decayed fruit (Penicillium digitatum; eugenol 1,100 ppm, 2 minutes at 38° C., kept at 7° C., after 18 days): 73% | percentages of decayed fruit (Penicillium digitatum; eugenol 1,100 ppm, 2 minutes at 48° C., kept at 7° C., after 9 days): 4% | percentages of decayed fruit (Penicillium digitatum; eugenol 1,100 ppm, 2 minutes at 48° C., kept at 7° C., after 18 days): 60%

C=CCOC(Cn1ccnc1)c1ccc(Cl)cc1Cl (stereo not shown) [Imazalil, imazalil, reference compound]
Average % of decayed fruit ([4]; 300 ppm imazalil): 42.5%
